What was measured:
[1] = biological target: T1, Recombinant human PARP1 protein (Homo sapiens, UniProt P09874); assay: PARP1 enzymatic inhibitory activity, histone substrate, chemiluminescent ELISA; settings: PARP2 IC50 over PARP1 IC50
Experimental: (§2) The PARP1/2 inhibitory activity of the compounds of the present invention was tested in an assay using Histone as a substrate.
(§3) Aim of the assay: to test the PARP1/2 enzymatic activity inhibition IC50 values of the compounds of the present application according to established experimental methods.
(§4) 1. Compound Configuration: Dilute the compounds with DMSO in 384-well plates to a 1000-fold final concentration and set aside.
(§5) 1) Dilute Histone with PBS, add 25uL of Histone mixture to each well and incubate for 2 h. 2) Wash each well 5 times using PBST solution. Remove the solution with a clean paper towel.3) Add 75 uL of Blocking buffer to each well and incubate for 1 h at rt. 4) Wash each well 5 times using PBST solution. Remove the solution with a clean paper towel.
(§6) 2) Use 1× Assay buffer to prepare 2.5× final concentration of PARP1 solution. 3) Add 10 uL of enzyme solution to the compound wells and Max control wells; add 10 uL of 1× Assay buffer. […] 6) Centrifuge at 1000 rpm for 60 seconds and incubate at rt for 2 h. 7) Each well was washed 5 times with PBST solution. Remove the solution with a clean paper towel.
(§7) 1) Prepare Streptavidin-HRP solution, add 25 µL to each well, centrifuge at 1000 rpm for 60 sec, and incubate at rt for 30 min. 2) Wash each well 5 times using PBST solution. Remove the solution with a clean paper towel. 3) Add 50 µL of ELISA Chemiluminescent Substrate per well. 4) Centrifuge at 1000 rpm for 60 seconds and read with EnSight after 5 min.
(§8) The inhibition rate was calculated using the following formula: % inhibition = (max signal - compound signal) / (max signal - min signal) × 100, where 'min signal' is the mean value of negative control wells and 'max signal' is the mean value of positive control wells.
(§9) Fitting the quantitative effect curve: using the log value of the concentration as the X-axis and the percentage inhibition as the Y-axis; using the log(inhibitor) vs. response-variable slope method in software GraphPadPrism5 to fit the quantitative effect curve to calculate the IC50 value for the inhibition of the enzyme activity by the compounds of the present invention. The fitting formula is: Y=Bottom+ (Top-Bottom)/(1+10^((logIC50-X)*HillSlope)).

[2] = biological target: T1, Recombinant human PARP1 protein; assay: biochemical
Experimental: as §2, §3, §4, §5, §6, §7, §8, §9

MDA-MB-436 cells = assay: MDA-MB-436 cell proliferation inhibition test (CellTiter-Glo, 7 days); type: cell-based; settings: Homo sapiens, MDA-MB-436, 168 h, 7 days incubation
Experimental: Human breast cancer MDA-MB-436 (purchased from ATCC) cells were cultured in DMEM medium (supplemented with 10% fetal bovine serum with 1% dual antibody) at 37 °C, 5% CO2. The cells were taken from the logarithmic growth phase, digested and prepare cell suspension witha certain concentration, which was inoculated into 96-well plates. 100 µL of cell suspension was added to each well of the 96-well plates, incubated overnight, then different concentrations of compounds were added, and the cells were incubated in the cell culture incubator for 7 days. At the end of incubation, 50 µL of CellTiter-Glo reagent was added to each well, mixed with a microplate and shaked for 2 min, and left at rt for 60 min, then the fluorescence value was read with a Spark® multimode microplate reader. […] Table 2. proliferation inhibitory activity of compounds of the present invention on MDA-MB-436 cells

MDR1 = assay: MDR1-MDCK II cell model of bidirectional permeability; type: in vitro ADME; settings: dog, 2 µM, 2.5 h
Experimental: (§1) 2 µM of the test compound was added to the wells at the apical side or the basolateral side of the monolayer of cells and incubated for 2.5 h at 37.0°C in a 5.0% CO2 incubator. Cell monolayer integrity was determined by Lucifer yellowrejection assay. The buffer was removed from the apical side and basolateral side, and the concentration of the subject compounds was determined using LC-MS/MS. The concentration data were used to calculate the apparent permeabilitycoefficients of apical-to-basolateral (A-B) and basolateral-to-apical (B-A)side, and to calculate efflux ratio with the formula: Efflux Ratio = Papp (B-A) / Papp (A-B) Table 3. bidirectional permeability of MDR1-MDCK II cells for compounds of the present invention

MDR1 (P-gp) = assay: as above; type: in vitro ADME; settings: dog, Efflux Ratio = Papp (B-A) / Papp (A-B), read-out: ER ratio
Experimental: as §1

[3] = Preliminary pharmacokinetic test in mice; type: in vivo; settings: male, ICR
Experimental: 1. Healthy ICR mice were administered the tested compounds intravenously (1 mg/kg) or by gavage (5 mg/kg). Nine male mice weighing 30-35 g for each route of administration were randomly divided into three groups of three mice each.
The mice were fasted for 12h before the test and allowed to drink water freely. The mice were fed 4h after the administration.
Intravenous and gavage administration: 0.25h, 0.5h, 1.0h, 2.0h, 3.0h, 4.0h, 6.0h, 8.0h and 24h after administration.
Blood was collected continuously, and 3 animals were collected at each time point. Plasma collection and processing: 30-40 µL of venous blood was collected from the mouse retroorbital venous plexus at the above set time points, placed in an EDTA-K2 test tube, centrifuged at 3500 rpm for 10 min, and plasma was separated and frozen in a -20 °C refrigerator.
The concentration of the compounds in mouse plasma was determined by LC/MS/MS. Pharmacokinetic parameters after administration were calculated using the […] of Phoenix 8.3 software (Pharsight, USA).

[4] = biological target: T2, recombinant human PARP2 protein (Homo sapiens, UniProt Q9UGN5); assay: PARP2 enzymatic inhibitory activity, histone substrate, chemiluminescent ELISA; type: biochemical; settings: histone substrate, 500 µM NAD+ not added; read-out: PARP2 IC50
T2 construct: purchased BPS 80502
Experimental: The PARP2 inhibitory activity assay was performed as in Experimental Method 1, except that PARP1 solution in step 2 of "3. Ribosylation reaction" was replaced with recombinant human PARP2 solution, and 500 µM NAD+ was not added in step 5 of the ribosylation reaction. Table 1. IC50 for inhibition of PARP1/2 enzymes by compounds of the present invention

T1 sequence (P09874 whole entry): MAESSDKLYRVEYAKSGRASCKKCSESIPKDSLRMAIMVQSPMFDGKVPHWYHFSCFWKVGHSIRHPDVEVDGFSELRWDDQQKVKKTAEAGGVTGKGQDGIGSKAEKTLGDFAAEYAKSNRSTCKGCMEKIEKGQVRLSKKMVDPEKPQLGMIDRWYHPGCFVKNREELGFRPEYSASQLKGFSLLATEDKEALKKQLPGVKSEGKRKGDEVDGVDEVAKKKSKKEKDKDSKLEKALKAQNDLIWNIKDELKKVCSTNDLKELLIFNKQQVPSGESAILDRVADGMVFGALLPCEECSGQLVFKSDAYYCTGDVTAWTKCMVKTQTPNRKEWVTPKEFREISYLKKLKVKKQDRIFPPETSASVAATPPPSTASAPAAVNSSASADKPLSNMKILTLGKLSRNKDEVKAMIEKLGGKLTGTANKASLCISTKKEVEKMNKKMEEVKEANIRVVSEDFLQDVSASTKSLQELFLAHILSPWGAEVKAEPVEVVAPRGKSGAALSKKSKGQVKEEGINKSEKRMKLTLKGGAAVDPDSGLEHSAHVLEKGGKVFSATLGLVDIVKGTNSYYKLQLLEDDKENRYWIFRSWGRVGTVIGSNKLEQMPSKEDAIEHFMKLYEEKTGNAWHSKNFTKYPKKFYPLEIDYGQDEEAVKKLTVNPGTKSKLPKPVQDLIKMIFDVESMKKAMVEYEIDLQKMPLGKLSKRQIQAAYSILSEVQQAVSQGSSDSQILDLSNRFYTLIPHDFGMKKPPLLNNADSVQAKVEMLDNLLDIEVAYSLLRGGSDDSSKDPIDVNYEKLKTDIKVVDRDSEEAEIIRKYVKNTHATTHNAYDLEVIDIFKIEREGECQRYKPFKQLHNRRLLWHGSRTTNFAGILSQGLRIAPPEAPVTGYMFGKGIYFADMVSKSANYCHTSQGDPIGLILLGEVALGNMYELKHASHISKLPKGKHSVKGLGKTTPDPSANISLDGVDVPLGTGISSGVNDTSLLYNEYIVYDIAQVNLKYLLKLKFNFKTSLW
T2 sequence (Q9UGN5 whole entry): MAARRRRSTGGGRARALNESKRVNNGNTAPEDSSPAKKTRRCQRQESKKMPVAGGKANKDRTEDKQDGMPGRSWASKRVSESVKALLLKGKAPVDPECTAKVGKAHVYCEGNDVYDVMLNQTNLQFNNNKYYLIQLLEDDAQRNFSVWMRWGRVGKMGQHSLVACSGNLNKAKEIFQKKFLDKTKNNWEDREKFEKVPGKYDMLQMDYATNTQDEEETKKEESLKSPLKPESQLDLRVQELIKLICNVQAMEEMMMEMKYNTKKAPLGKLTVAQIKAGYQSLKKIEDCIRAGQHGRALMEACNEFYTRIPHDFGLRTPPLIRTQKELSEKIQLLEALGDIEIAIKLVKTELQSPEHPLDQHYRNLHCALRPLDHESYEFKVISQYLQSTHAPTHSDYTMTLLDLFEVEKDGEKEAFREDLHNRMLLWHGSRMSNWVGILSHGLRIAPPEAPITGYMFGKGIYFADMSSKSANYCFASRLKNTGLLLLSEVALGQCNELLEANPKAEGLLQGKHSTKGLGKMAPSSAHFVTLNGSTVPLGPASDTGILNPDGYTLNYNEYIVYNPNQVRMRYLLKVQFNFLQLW

CNC(=O)c1ccc(N2CCN(Cc3ccc4c(c3F)NC(=O)N3C[C@@H](C)N=C43)CC2)c(Cl)n1 [Compound 154]
PARP1/2 Fold selectivity [1]: 706.9 | IC50 [2]: 1.6 nM | IC50 (MDA-MB-436 cells): 0.33 nM | Papp A→B at 2.5 h, 2 µM (MDR1; apical-to-basolateral): 13.9 ×10⁻⁶ cm/s | Papp B→A at 2.5 h, 2 µM (MDR1; basolateral-to-apical): 22.8 ×10⁻⁶ cm/s | efflux ratio at 2.5 h, 2 µM (MDR1 (P-gp)): 1.64 | AUC(0-t) ([3]; iv, mouse plasma, i.v. 1 mg/kg): 7240 ng·h/mL | clearance ([3]; iv, mouse plasma, i.v. 1 mg/kg): 2.3 mL/min/kg | half-life ([3]; iv, mouse plasma, i.v. 1 mg/kg): 1.1 h | bioavailability ([3]; plasma, oral, mouse, p.o. 5 mg/kg versus i.v. 1 mg/kg): 62.1% | AUC(0-t) ([3]; po, mouse plasma, p.o. 5 mg/kg): 22500 ng·h/mL | half-life ([3]; po, mouse plasma, p.o. 5 mg/kg): 2.3 h | IC50 [4]: 1130 nM

Reference: patent publication EP4617273A1, “FUSED TRICYCLIC PARP1 INHIBITOR, PREPARATION METHOD THEREFOR, AND USE THEREOF” (Haihe Biopharma Co., Ltd., priority 2022, dated 2024)
